We go through 1 compound from US20040024055A1, “Pharmaceutical composition containing the exract of saururus chinensis baill useful as an anticancer agent and a process for the preparation thereof” (priority 2000, published 2004).

The test system of test [1] is HS683. In words: MTT analysis, anticancer activity. Type of test: cell-based, human. The note with it: Homo sapiens, Hs 683, 48 hr.
The test system of test [2] is BT-20. The test can be described thus: MTT analysis, anticancer activity. Type of test: cell-based, human. Particulars: Homo sapiens, BT-20, 48 hr.
Test [3] relates to DU-145 prostate cancer cell line. The test can be described thus: MTT analysis, anticancer activity. The test is classed as cell-based, human. Particulars: Homo sapiens, DU-145, 48 hr.
For test [4], the system named is SK-Hep-1. In words: Adhesion of cancer cell to Gelatin. Type of test: cell-based, human. The protocol: (§1) After treating HNP-98701 on tissue culture plate coated with the matrices, cancer cell was attached thereupon. To be specific, 50 μl/ml of […], 2 μg/ml of laminin, 2 μg/ml of collagen and 2 μg/ml of gelatin were coated on the surface of 96-well microplate (Corning Co.) per well. After solidifying for 2 hr, HNP-98701 was added to each well and treated for 1 hr. […] After treating the substances for 1 hr, cancer cell was added to each cell, and it was cultured for 3 hr. […] After culturing these cell lines for 3 hr, they were centrifuged. After collecting biomass only, it was washed with distilled water or PBS buffer solution for three times. […] Then, absorbance was measured at 560-405 nm with automatic Eliza detector (Molecular […] Corp., USA). […] Each experiment was performed for three times repeatedly.

Test [5] relates to Hep-2. The test can be described thus: Adhesion of cancer cell to Gelatin. The test is classed as cell-based, human. The protocol:
as §1

For test [6], the system named is SK-MEL-28. The test can be described thus: Adhesion of cancer cell to Gelatin. The test is classed as cell-based, human. The protocol:
as §1

For test [7], the system named is SK-MEL-28. In words: MTT analysis, anticancer activity. Type of test: cell-based, human. The note with it: Homo sapiens, SK-MEL-28, 48 hr.
In test [8] the test system is NIH-3T3. The test can be described thus: Adhesion of cell to Collagen. The test is classed as cell-based, mouse. The protocol: as §1
In test [9] the test system is SK-N-SH. The test can be described thus: MTT analysis, anticancer activity. The test is classed as cell-based, human. Particulars: Homo sapiens, SK-N-SH, 48 hr.
Test [10] deals with ME-180. In words: MTT analysis, anticancer activity. The test is classed as cell-based, human. Particulars: Homo sapiens, ME-180; MTT, 48 hr.
Test [11] concerns SK-OV-3. In words: MTT analysis, anticancer activity. Type of test: cell-based, human. The note with it: Homo sapiens, SK-OV-3; MTT, 48 hr.
For test [12], the system named is 3T3-L1. In words: MTT analysis, cytotoxicity against normal cell line. The test is classed as cell-based, mouse. Particulars: Mus musculus, 3T3-L1; MTT, 48 hr.

The structures appear in SMILES notation. In brackets after ≈: the same amount, converted by molar mass.

As usually defined, the IC50 is the midpoint of a concentration-inhibition curve. A lower IC50 goes with greater potency in that assay.

Turning to `COc1cccc2c1C(=O)c1c(O)c3c(c(O)c1C2=O)C[C@@](O)(C(=O)CO)C[C@@H]3O[C@H]1C[C@H](N)[C@H](O)[C@H](C)O1` [Adriamycin, adriamycin (doxorubicin)], the IC50 in test [1] was 0.205 µg/mL (≈ 0.377 µM); in [2], 0.131 µg/mL (≈ 0.241 µM); in [3] it was above 50 µg/mL; in [7] it was 0.75 µg/mL (≈ 1.38 µM); in [9], 0.207 µg/mL (≈ 0.381 µM); in test [10], 0.108 µg/mL (≈ 0.198 µM). Besides, the IC50 in [11] is above 50 µg/mL; in test [12] it was 2 µg/mL (≈ 3.68 µM). Moreover, the entries for the “Adhesion SK-Hep-1 (%)” value in test [4] (0.1 μg/ml), in [4] (1 μg/ml) and in test [4] (10 μg/ml) were 85.77%, 76.37% and 33.29%, respectively. Moreover, the “Adhesion Hep-2 (%)” value in test [5] (0.1 μg/ml) was 104.27%; in test [5] (1 μg/ml) it was 98.27%; in test [5] (10 μg/ml), 97.73%. In addition, the “Adhesion SK-MEL-28 (%)” value in [6] (0.1 μg/ml) was found to be 96.39%; in test [6] (1 μg/ml) it was 97.42%; in [6] (10 μg/ml), 97.21%. For the same compound, the “Adhesion NIH-3T3 (%)” value in [8] (0.1 μg/ml) was 111.98%; in test [8] (1 μg/ml), 109.97%; in test [8] (10 μg/ml), 111.13%.
